Reference: PMC12406253, “Exploration of the Neuromodulatory Properties of Fyn and GSK-3β Kinases Exploiting 7‑Azaindole-Based Inhibitors” (Journal of Medicinal Chemistry, 2025)

Tests used:
[1] = tested on: primary rat cerebellar granule neurons (CGNs); experiment: Neuroprotection in CGNs, serum/potassium deprivation (MTT); format: cell-based; conditions: 5, 10, and 25 μM, 48 h
From the text: First, we evaluated the neuroprotective properties of the selected compounds in the same cell line, once the expression of Fyn and GSK-3β in this cellular model was verified (Figure S2), after a serum/potassium deprivation experiment, which simulates physiological aging (and mortality), triggering around 20% of cell death. In particular, 7 days differentiated CGNs were exposed to serum-free BME medium with low extracellular concentration of K^+ ions and treated at selected doses (i.e., 5, 10, and 25 μM) of compounds for 48 h. Neuronal viability was then determined with an MTT assay.
To evaluate the neuroprotective effect of our compounds, we tested increasing concentrations (5 μM, 10 μM, 25 μM) of compounds of interest in differentiated CGNs switched to serum-free BME medium with 5 mM KCl (serum-potassium deprivation) for 48 h to mimic in vitro the naturally occurring death of granule cells. Neuroprotection was evaluated through MTT assay.
For MTT assay, thiazolyl blue was added to the culture medium at a final concentration of 0.1 mg/mL. Following a 20 min incubation at 37 °C in the dark, the MTT precipitate was dissolved in 0.1 M Tris–HCl pH 7.5 buffer containing 5% Triton X-100 (all from Sigma-Aldrich) and absorbance was read at 570 nm in a microplate spectrophotometric reader (Bio-Rad).

EGFR(h) = target: T1, EGFR(h) (Homo sapiens, UniProt P00533); experiment: Eurofins KinaseProfiler radiometric kinase assay; format: biochemical; conditions: read-out: EGFR(h) % Residual activity
T1 construct: purchased Eurofins KinaseProfiler (Eurofins Cerep)

Fyn(h) = target: T2, Fyn(h) (Homo sapiens, UniProt P06241); experiment: Eurofins KinaseProfiler radiometric kinase assay; format: biochemical; conditions: for Fyn inhibition: 10 µM; for remaining activity at 10 µM: read-out: Fyn(h) % Residual activity
T2 construct: purchased Eurofins KinaseProfiler (Eurofins Cerep)

CDK9/cyclin T1(h) = target: T3, CDK9/cyclin T1(h) (Homo sapiens, UniProt P50750); experiment: Eurofins KinaseProfiler radiometric kinase assay; format: biochemical; conditions: for remaining activity at 10 µM: read-out: CDK9/cyclin T1(h) % Residual activity
T3 construct: purchased Eurofins KinaseProfiler (Eurofins Cerep)

AMPKα1(h) = target: T4, AMPKα1(h) (Homo sapiens, UniProt Q13131); experiment: Eurofins KinaseProfiler radiometric kinase assay; format: biochemical; conditions: read-out: AMPKα1(h) % Residual activity
T4 construct: purchased Eurofins KinaseProfiler (Eurofins Cerep)

Abl(h) = target: T5, Abl(h) (Homo sapiens, UniProt P00519); experiment: Eurofins KinaseProfiler radiometric kinase assay; format: biochemical; conditions: for Abl inhibition: 10 µM; for remaining activity at 10 µM: read-out: Abl(h) % Residual activity
T5 construct: purchased Eurofins KinaseProfiler (Eurofins Cerep)

CDK6/cyclinD3(h) = target: T6, CDK6/cyclinD3(h) (Homo sapiens, UniProt Q00534); experiment: Eurofins KinaseProfiler radiometric kinase assay; format: biochemical; conditions: read-out: CDK6/cyclinD3(h) % Residual activity
T6 construct: purchased Eurofins KinaseProfiler (Eurofins Cerep)

[2] = tested on: neurospheres (NPCs from the subventricular zone); experiment: Neurosphere differentiation, immunofluorescence of DCX, GFAP, OLIG2; format: cell-based, mice; conditions: 1 μM; 7 days
From the text: Lastly, we move forward to evaluate the neuromodulatory profile of selected compounds that involves the capability to polarize the spontaneous differentiation of neurospheres, which potentially can maturate in neurons or macroglia, such as astrocytes and oligodendrocytes. Modulating NPC differentiation is especially relevant under neurodegenerative conditions as it could offer an intriguing opportunity to achieve polyhedric therapeutic effects. Importantly, neuronal differentiation may help to counteract the progressive neuronal loss, while promoting oligodendrocyte phenotype could support remyelination and neuronal function and the astrocytic polarization may aid to foster a neuroprotective profile. Particularly, after 7 days of treatment at 1 μM, in the same experimental conditions previously reported, cells were fixed and stained with different antibody markers such as doublecortin (DCX) for the immature neurons, glial fibrillary acidic protein (GFAP) for astrocytes, and oligodendrocyte transcription factor 2 (OLIG2) for oligodendrocyte precursors for immunofluorescence analysis (Figure a). […] By driving the maturation of astrocytes, compounds 41 and 43 could exert neuroprotection through multiple mechanisms, including the secretion of neurotrophic factors, enhancement of antioxidant defenses, regulation of water balance, ion homeostasis, and glutamate buffering and recycling. Furthermore, astrocytes support the integrity of the blood–brain barrier (BBB) and aid in the refinement of neural networks via synaptic pruning, further reinforcing their role in preserving brain function and structure.
NSCs were initially obtained by SVZ microdissection of 6 months-old C57BL/6N wild-type male mice (Mus musculus) and routinely cultured in suspension in DMEM-F12 (Gibco; ThermoFisher Scientific, Waltham, MA, USA) supplemented with 2 mM glutamine, 10 μg/mL insulin from bovine pancreas (Sigma-Aldrich; St Louis, MO, USA), 20 ng/mL epidermal growth factor (EGF; PeproTech EC, London, UK), 20 ng/mL fibroblast growth factor-2 (FGF2; PeproTech), 1% N2 (ThermoFisher Scientific), 1% B27 (ThermoFisher Scientific), 10 units/mL penicillin, and 10 μg streptomycin.
To assess the effect of compounds of interest in NSCs differentiation, 30 spheres were plated on 13 mm glass coverslips, previously coated with Matrigel matrix (Corning; New York, USA), in complete DMEM F-12 medium, and treated with 1 μM of compounds of interest. After 7DIV, neurospheres were fixed for 20 min with 4% PFA in PBS 0.1% pH 7.4. Fixed neurospheres were permeabilized in 0.1% Triton/PBS and nonspecific sites were blocked for 1 h with 0.1% Triton/PBS and 5% normal goat serum (Sigma-Aldrich; St Louis, MO, USA). Cells were then incubated overnight at 4 °C with the following primary antibodies: Anti-Doublecortin DCX (Abcam, Cambridge, UK), GFAP (Dakopatts), OLIG2 (Santa Cruz Biotechnology), 1:500 dilution in 0.1% Triton/PBS with 2% normal goat serum. After 3 washes in 0.1% Triton/PBS, specific secondary antibodies were added for 2 h at RT in the dark: Donkey anti-Mouse IgG Alexafluor 555 (Abcam, Cambridge, UK), Goat anti-Rabbit IgG Alexafluor 555 (Abcam, Cambridge, UK), 1:1000 dilution in 0.1% Triton/PBS with 2% normal goat serum. Following 3 washes in 0.1% Triton/PBS, nuclei were stained with DAPI (2 μg/mL, Sigma-Aldrich) for 5 min. Glass coverslips were mounted by using Ultracruz Aqueous Mounting Medium with DAPI (Santa Cruz Biotechnology). Neurospheres confocal images were obtained with a Nikon EZ-C1 microscope (60× objective) and the z-stack function (1024 steps and 1 μm thickness layers; 40 total stacks). 3D image reconstruction was performed by using Fiji ImageJ2 software, z-project plugin, and selecting the sum stacks’ function. Fluorescence intensity index was estimated as the ratio of markers’ positive cells intensity/total cells fluorescence intensity stained with DAPI per ROI.

ALK(h) = target: T7, ALK(h) (Homo sapiens, UniProt Q9UM73); experiment: Eurofins KinaseProfiler radiometric kinase assay; format: biochemical; conditions: read-out: ALK(h) % Residual activity
T7 construct: purchased Eurofins KinaseProfiler (Eurofins Cerep)

EphB4(h) = target: T8, EphB4(h) (Homo sapiens, UniProt P54760); experiment: Eurofins KinaseProfiler radiometric kinase assay; format: biochemical; conditions: read-out: EphB4(h) % Residual activity
T8 construct: purchased Eurofins KinaseProfiler (Eurofins Cerep)

JAK2(h) = target: T9, JAK2(h) (Homo sapiens, UniProt O60674); experiment: Eurofins KinaseProfiler radiometric kinase assay; format: biochemical; conditions: read-out: JAK2(h) % Residual activity
T9 construct: purchased Eurofins KinaseProfiler (Eurofins Cerep)

KDR(h) = target: T10, KDR(h) (Homo sapiens, UniProt P35968); experiment: Eurofins KinaseProfiler radiometric kinase assay; format: biochemical; conditions: read-out: KDR(h) % Residual activity
T10 construct: purchased Eurofins KinaseProfiler (Eurofins Cerep)

T5 sequence (P00519 whole entry): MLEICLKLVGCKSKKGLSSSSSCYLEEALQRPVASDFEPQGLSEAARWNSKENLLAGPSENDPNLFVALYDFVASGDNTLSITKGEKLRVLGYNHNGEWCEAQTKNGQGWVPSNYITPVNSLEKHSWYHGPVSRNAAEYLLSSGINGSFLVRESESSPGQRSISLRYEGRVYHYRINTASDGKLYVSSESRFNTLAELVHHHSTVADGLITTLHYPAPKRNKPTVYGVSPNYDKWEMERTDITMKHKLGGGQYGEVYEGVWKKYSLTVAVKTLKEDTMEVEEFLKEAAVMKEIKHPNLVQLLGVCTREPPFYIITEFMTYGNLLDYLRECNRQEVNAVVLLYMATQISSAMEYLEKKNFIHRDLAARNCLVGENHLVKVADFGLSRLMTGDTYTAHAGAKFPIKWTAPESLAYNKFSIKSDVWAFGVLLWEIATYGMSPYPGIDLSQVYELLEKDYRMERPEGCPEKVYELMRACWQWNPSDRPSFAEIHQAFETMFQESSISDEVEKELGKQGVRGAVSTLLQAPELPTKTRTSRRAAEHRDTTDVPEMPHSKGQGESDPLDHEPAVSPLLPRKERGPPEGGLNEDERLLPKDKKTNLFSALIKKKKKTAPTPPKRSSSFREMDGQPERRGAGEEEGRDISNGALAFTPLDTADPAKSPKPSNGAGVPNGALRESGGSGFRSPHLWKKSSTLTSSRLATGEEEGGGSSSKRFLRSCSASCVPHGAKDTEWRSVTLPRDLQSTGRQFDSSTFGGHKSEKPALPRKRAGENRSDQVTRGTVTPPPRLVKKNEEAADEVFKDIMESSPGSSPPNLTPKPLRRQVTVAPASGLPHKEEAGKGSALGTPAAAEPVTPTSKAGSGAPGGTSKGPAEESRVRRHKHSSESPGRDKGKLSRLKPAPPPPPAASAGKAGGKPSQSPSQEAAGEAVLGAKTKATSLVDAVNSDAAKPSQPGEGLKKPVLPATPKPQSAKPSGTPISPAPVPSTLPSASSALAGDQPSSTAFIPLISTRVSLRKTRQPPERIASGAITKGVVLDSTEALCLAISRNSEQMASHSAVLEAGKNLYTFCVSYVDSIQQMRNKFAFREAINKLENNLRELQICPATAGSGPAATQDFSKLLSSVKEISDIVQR
T2 sequence (P06241 whole entry): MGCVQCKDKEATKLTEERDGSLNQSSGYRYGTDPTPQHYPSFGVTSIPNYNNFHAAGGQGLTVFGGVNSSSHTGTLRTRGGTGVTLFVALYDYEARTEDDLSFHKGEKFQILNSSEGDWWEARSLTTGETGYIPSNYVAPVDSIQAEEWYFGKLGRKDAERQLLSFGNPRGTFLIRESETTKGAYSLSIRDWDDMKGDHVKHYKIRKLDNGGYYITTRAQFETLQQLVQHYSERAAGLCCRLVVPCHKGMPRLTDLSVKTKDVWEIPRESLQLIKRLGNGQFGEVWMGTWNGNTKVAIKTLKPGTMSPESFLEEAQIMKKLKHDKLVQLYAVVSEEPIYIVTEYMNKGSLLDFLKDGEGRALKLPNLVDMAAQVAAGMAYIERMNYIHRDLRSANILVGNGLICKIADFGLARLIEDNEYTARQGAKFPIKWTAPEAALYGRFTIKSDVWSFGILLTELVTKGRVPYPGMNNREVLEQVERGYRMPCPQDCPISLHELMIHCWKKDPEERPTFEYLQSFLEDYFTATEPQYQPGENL
T3 sequence (P50750 whole entry): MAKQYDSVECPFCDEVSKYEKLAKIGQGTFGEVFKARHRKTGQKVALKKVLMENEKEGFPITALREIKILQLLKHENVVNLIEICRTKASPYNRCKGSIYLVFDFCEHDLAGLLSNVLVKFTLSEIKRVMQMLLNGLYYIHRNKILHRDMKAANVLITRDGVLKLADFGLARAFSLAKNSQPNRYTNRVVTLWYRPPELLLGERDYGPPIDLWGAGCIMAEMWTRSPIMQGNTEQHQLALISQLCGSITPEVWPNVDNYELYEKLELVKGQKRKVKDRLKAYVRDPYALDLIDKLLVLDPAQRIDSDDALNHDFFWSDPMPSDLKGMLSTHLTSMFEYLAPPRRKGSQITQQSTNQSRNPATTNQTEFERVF
T3 sequence (O60563 whole entry partner): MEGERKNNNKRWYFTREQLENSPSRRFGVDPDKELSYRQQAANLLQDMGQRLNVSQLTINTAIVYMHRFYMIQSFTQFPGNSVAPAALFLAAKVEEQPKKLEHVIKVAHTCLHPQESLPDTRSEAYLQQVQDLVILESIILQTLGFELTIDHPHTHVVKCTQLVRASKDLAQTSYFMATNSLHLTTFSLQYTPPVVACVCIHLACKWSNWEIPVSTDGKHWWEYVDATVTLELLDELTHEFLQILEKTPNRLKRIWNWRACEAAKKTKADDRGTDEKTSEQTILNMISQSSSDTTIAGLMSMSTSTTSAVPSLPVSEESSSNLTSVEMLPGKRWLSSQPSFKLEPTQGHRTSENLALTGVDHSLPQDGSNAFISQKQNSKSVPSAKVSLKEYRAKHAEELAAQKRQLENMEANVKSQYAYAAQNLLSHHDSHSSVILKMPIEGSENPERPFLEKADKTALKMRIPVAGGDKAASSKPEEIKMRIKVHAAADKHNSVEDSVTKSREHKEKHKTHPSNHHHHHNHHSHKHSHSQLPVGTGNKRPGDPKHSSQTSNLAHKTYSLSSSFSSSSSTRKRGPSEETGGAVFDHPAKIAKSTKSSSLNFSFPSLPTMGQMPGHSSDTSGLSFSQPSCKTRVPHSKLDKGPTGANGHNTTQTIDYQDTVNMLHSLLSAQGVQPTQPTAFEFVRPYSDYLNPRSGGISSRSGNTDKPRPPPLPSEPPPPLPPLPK
T4 sequence (Q13131 whole entry): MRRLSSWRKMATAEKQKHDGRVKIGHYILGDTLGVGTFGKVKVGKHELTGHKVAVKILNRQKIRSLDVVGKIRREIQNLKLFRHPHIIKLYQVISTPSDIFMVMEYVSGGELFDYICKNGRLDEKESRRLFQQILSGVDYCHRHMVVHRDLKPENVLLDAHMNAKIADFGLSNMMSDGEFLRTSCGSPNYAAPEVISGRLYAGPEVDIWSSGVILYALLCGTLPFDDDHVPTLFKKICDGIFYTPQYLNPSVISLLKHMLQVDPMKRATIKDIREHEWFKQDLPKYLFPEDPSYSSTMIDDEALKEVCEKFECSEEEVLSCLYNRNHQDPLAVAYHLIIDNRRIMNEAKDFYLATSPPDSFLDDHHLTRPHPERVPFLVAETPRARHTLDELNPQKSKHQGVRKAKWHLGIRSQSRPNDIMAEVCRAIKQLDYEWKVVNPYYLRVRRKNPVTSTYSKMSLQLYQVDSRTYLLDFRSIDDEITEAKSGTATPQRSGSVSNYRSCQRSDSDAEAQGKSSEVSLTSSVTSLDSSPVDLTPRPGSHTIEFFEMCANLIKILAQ
T4 sequence (Q9Y478 whole entry partner): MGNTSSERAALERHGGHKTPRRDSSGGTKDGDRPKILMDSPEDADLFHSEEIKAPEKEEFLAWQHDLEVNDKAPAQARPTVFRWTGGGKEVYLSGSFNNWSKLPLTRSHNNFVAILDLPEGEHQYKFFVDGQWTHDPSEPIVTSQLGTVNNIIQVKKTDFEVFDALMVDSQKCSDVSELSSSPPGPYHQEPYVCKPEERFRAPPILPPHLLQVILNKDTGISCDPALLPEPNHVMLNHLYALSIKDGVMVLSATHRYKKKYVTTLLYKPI
T4 sequence (P54619 whole entry partner): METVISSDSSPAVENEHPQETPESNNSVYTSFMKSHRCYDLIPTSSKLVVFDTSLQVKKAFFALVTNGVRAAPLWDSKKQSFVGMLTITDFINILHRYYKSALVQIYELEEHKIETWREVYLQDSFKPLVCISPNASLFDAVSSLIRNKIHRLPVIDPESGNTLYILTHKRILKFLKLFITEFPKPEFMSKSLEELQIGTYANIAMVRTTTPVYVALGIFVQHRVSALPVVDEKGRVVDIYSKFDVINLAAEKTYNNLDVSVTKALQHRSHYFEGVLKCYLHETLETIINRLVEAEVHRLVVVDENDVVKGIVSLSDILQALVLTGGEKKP
T6 sequence (Q00534 whole entry): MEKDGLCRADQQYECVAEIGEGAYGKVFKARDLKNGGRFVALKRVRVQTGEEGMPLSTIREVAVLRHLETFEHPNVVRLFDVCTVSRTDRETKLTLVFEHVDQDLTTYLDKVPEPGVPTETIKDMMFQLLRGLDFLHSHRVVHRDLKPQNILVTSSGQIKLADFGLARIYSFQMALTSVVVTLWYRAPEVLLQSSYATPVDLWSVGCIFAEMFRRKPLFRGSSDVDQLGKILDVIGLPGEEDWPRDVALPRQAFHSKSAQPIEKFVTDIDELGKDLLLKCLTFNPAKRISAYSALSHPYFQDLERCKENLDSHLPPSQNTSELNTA
T6 sequence (P30281 whole entry partner): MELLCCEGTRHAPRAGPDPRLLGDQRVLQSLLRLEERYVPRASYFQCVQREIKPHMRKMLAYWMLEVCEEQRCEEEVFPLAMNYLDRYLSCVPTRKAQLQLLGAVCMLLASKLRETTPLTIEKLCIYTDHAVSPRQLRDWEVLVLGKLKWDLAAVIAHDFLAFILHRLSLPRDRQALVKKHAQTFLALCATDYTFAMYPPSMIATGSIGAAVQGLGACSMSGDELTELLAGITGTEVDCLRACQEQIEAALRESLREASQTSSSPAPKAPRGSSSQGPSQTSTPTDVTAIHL

| SMILES | Neuroprotection on CGNs (cell viability after serum/potassium deprivation) [1] | remaining activity at 10 µM (EGFR(h)) [%] | Fyn inhibition (Fyn(h)) | remaining activity at 10 µM (Fyn(h)) [%] | remaining activity at 10 µM (CDK9/cyclin T1(h)) [%] | remaining activity at 10 µM (AMPKα1(h)) [%] | Abl inhibition (Abl(h)) | remaining activity at 10 µM (Abl(h)) [%] | remaining activity at 10 µM (CDK6/cyclinD3(h)) [%] | Differentiation toward astrocytes (GFAP) [2] | Differentiation toward oligodendrocytes (OLIG2) [2] | remaining activity at 10 µM (ALK(h)) [%] | remaining activity at 10 µM (EphB4(h)) [%] | remaining activity at 10 µM (JAK2(h)) [%] | remaining activity at 10 µM (KDR(h)) [%] | inhibition at 10 µM (CDK9/cyclin T1(h)) [%] |
| --- | --- | --- | --- | --- | --- | --- | --- | --- | --- | --- | --- | --- | --- | --- | --- | --- |
| Br.Cc1sc(NCc2ccccc2)nc1-c1c[nH]c2ncc(Br)cc12 [Compound 41, N-Benzyl-4-(5-bromo-1H-pyrrolo[2,3-b]pyridin-3-yl)-5-methylthiazol-2-amine Hydrobromide] | mitigate the physiological senescence and mortality rate | 50 | completely inhibited | -2 | 50 | 54 | completely inhibited | 8 | 86 | notably directed the differentiation toward the astrocytic phenotype | markedly deleterious for oligodendrocytes | 38 | 109 | 26 | 16 |  |
| Br.Cc1sc(NCc2ccnc(Cl)c2)nc1-c1c[nH]c2ncccc12 [Compound 43, N-((2-Chloropyridin-4-yl)methyl)-5-methyl-4-(1H-pyrrolo[2,3-b]pyridin-3-yl)thiazol-2-amine Hydrobromide] | mitigate the physiological senescence and mortality rate | 86 | completely inhibited | 0 | 5 | 60 | completely inhibited | 6 | 90 | notably directed the differentiation toward the astrocytic phenotype | this effect was mitigated | 61 | 108 | 46 | 15 | > 90 |
